Data taken from US20240376086A1, “SOLID FORM OF RHO-ASSOCIATED PROTEIN KINASE INHIBITOR OR SOLVATE THEREOF, PREPARATION METHOD AND USE THEREOF” (BEIJING TIDE PHARMACEUTICAL CO., LTD., priority 2021, published 2024).

How the values were obtained:
Type in all cases: physicochemical
[1] = Solid hygroscopicity test; settings: 25° C.±1° C., 80%±2% relative humidity, 24 hours
Description: Experimental Example 3: Solid Hygroscopicity Test
100 mg of Crystalline Form II of Compound A anhydrate and 100 mg of Crystalline Form I of Compound A monohydrate were precisely weighed. The two samples were placed at 25° C.±1° C. and 80%±2% relative humidity for 24 hours. The weight of the samples was then measured and the percentage weight increase was calculated.

[2] = Solid heat stability test (heating in DSC, then XRPD)
Description: Experimental Example 2: Solid Heat Stability Test
In a differential scanning calorimeter, samples of Crystalline Form I of Compound A monohydrate were heated at a rate of 10° C./min to 150° C. and 210° C., respectively, and then analyzed by X-ray powder diffraction.

[3] = Solid stability test (XRPD after storage)
Description: Experimental Example 1: Solid Stability Test
Two samples of Crystalline Form II of Compound A anhydrate were placed in environments of 40° C./75% RH and 60° C./90% RH for 7 days.

Row | SMILES | weight increase percentage (hygroscopicity) [1] | crystalline form by XRPD after heat treatment ([2]; heated at 10° C./min to 150° C.) | crystalline form by XRPD after heat treatment ([2]; heated at 10° C./min to 210° C.) | change in the crystalline form by XRPD analysis ([3]; 40° C./75% RH for 7 days) | change in the crystalline form by XRPD analysis ([3]; 60° C./90% RH for 7 days)
1 | Cn1c(C(=O)C2CC(F)(F)C2)cc2ccc(-c3nccc(Nc4ccc(-c5cn[nH]c5)cc4)n3)cc21 [Crystalline Form I of Compound A monohydrate] | 3.62% | remained unchanged | converted to crystalline form II of Compound A anhydrous |  | 
2 | Cn1c(C(=O)C2CC(F)(F)C2)cc2ccc(-c3nccc(Nc4ccc(-c5cn[nH]c5)cc4)n3)cc21 [Crystalline Form II of Compound A anhydrate] | 0.69% |  |  | no change in the crystalline form | no change in the crystalline form
